Laboratory results published in patent publication US20220023289A1, “Application Of Pyrroloquinoline Quinone In Preparation Of Medicament Used For Preventing And Treating Acute Altitude Sickness And Acute Altitude Hypoxia Injury” (priority 2018, published 2022).

How the values were obtained:
[1] = Rat body weight before the acute decompression hypoxia experiment (intragastric 7 days)
Protocol: (§1) Select healthy Wistar rats weight 160-200 g, half female and half male. After feeding for 3 days, these Wistar rats are randomly divided into ten groups according to their body weight, each group has 16±2 rats. The groups are divided as follows: five groups of the hypoxic exposure drug test group, respectively, are given 0.91 mg/kg, 1.83 mg/kg, 3.66 mg/kg, 7.31 mg/kg, and 14.63 mg/kg drugs. […] After continuous intragastric administration for 7 days, the animals in the hypoxic exposure group are simultaneously put into the decompression and hypoxia compound experimental chamber, the hatch is closed, and the pressure is reduced at a speed of 10 m/s. After being raised to an altitude of 6000 m and maintained for 8 hours, the speed in 10 m/s drops is reduced to normal altitude, open the hatch, and then take out the animal, collect blood samples (after standing for 1 hour, the supernatant is centrifuged and stored at −20° C.), and liver tissue samples. Detection indicator includes body weight, serum blood glucose, ATP, lactic acid, endothelin, nitric oxide, SOD, CO, MDA related to oxidative stress, and total protein, albumin, triglycerides, total cholesterol, high-density lipoprotein cholesterol, low-density lipoprotein cholesterol, glutamic pyruvic transaminase, total bilirubin, gluamic oxalacetic transaminase, serum urea nitrogen, creatinine, uric acid, lactate dehydrogenase, creatine kinase, α-hydroxybutyrate dehydrogenase; liver ATP, hepatic glycogen. Except that the formal oxygen control animal group is not put into the decompression and hypoxia compound experimental chamber, other experimental conditions and detection indicators are the same.

[2] = test system: rats exposed to acute altitude hypoxia; assay: Myocardial enzyme activity in rats exposed to acute altitude hypoxia; type: in vivo, Wistar rat
Protocol: as §1
(§2) Measure blood glucose, total protein, albumin, triglycerides, total cholesterol, high-density lipoprotein cholesterol, low-density lipoprotein cholesterol, glutamic-pyruvic transaminase, total bilirubin, glutamic oxalacetic transaminase, serum urea nitrogen, creatinine, uric acid, lactate dehydrogenase, creatine kinase, α-hydroxybutyrate dehydrogenase, blood homocysteine by using an automatic blood biochemical analyzer.

[3] = test system: rats exposed to acute altitude hypoxia; assay: Protein metabolism in rats exposed to acute altitude hypoxia; type: in vivo, Wistar rat
Protocol: as §1, §2

[4] = Mice weight before hypoxia tolerance test of simulated 10000 m altitude acute decompression
[5] = test system: rats with acute altitude hypoxia injury; assay: Serum energy metabolism indexes (ATP, lactic acid) in rats with acute altitude hypoxia injury; type: in vivo, Wistar rat
Protocol: Determination of adenosine triphosphate (ATP): Perform enzyme-linked immunosorbent assay by double-antibody one-step sandwich method. To the coated microwells pre-coated with rat adenosine triphosphate (ATP) capture antibody, add in sequence the specimens, standard, and HRP-labeled detection antibody, and then incubate and wash thoroughly. Use a substrate TMB for color development, TMB is converted into blue under the catalysis of peroxidase and converted into the final yellow color under the action of acid. The color intensity is positively correlated with the rat adenosine triphosphate (ATP) in the sample. […] Determination of lactic acid (LC): Perform enzyme-linked immunosorbent assay by double-antibody one-step sandwich method. To the coated microwells pre-coated with rat lactic acid (LC) capture antibody, add in sequence the specimens, standard, and HRP-labeled detection antibody, and then incubate and wash thoroughly. Use a substrate TMB for color development. TMB is converted into blue under the catalysis of peroxidase and converted into the final yellow color under the action of acid. The color intensity is positively correlated with the rat lactic acid (LC) in the sample.

[6] = female rats, hypoxia, 0.91 mg/kg
[7] = female rats, hypoxia, 1.83 mg/kg
[8] = female rats, hypoxia, 3.66 mg/kg
[9] = female rats, hypoxia, 7.31 mg/kg
[10] = female rats, hypoxia, 14.63 mg/kg
[11] = female rats, normoxia, 3.66 mg/kg
[12] = male rats, hypoxia, 14.63 mg/kg
[13] = male rats exposed to hypoxia, low-dose
[14] = administration for 14 days, 1.32 mg/kg
[15] = administration for 14 days, 2.64 mg/kg
[16] = administration for 14 days, 5.28 mg/kg
[17] = administration for 14 days, 10.56 mg/kg
[18] = administration for 14 days, 21.12 mg/kg
[19] = administration for seven days, 1.32 mg/kg
[20] = administration for seven days, 2.64 mg/kg
[21] = administration for seven days, 5.28 mg/kg
[22] = administration for seven days, 10.56 mg/kg
[23] = administration for seven days, 21.12 mg/kg
[24] = administration for three days, 1.32 mg/kg
[25] = administration for three days, 2.64 mg/kg
[26] = administration for three days, 5.28 mg/kg
[27] = administration for three days, 10.56 mg/kg
[28] = administration for three days, 21.12 mg/kg
[29] = seven days, repeat experiment in male mice, 1.32 mg/kg
[30] = seven days, repeat experiment in male mice, 2.64 mg/kg
[31] = seven days, repeat experiment in male mice, 5.28 mg/kg
[32] = seven days, repeat experiment in male mice, 10.56 mg/kg
[33] = seven days, repeat experiment in male mice, 21.12 mg/kg

## O=C(O)c1cc(C(=O)O)c2c(n1)C(=O)C(=O)c1cc(C(=O)O)[nH]c1-2 [PQQ, pyrroloquinoline quinone]
[1]; 0.91 mg/kg
  rat body weight Female 1 day: 154.4 ± 7.2 g
  rat body weight Female 7 days: 169.6 ± 3.3 g
  rat body weight Male 1 day: 173.4 ± 7.4 g
  rat body weight Male 7 days: 196.4 ± 5.7 g
[1]; 1.83 mg/kg
  rat body weight Female 1 day: 153.6 ± 6.9 g
  rat body weight Female 7 days: 167.4 ± 6.7 g
  rat body weight Male 1 day: 173.6 ± 5.9 g
  rat body weight Male 7 days: 206.8 ± 6.2 g
[1]; 3.66 mg/kg
  rat body weight Female 1 day: 154.1 ± 8.6 g
  rat body weight Female 7 days: 172.1 ± 2.2 g
  rat body weight Male 1 day: 170.8 ± 10.8 g
  rat body weight Male 7 days: 198.3 ± 9.0 g
[1]; 7.31 mg/kg
  rat body weight Female 1 day: 154.3 ± 7.7 g
  rat body weight Female 7 days: 171.1 ± 8.6 g
  rat body weight Male 1 day: 169.9 ± 9.9 g
  rat body weight Male 7 days: 198.6 ± 11.6 g
[1]; 14.63 mg/kg
  rat body weight Female 1 day: 152.7 ± 7.2 g
  rat body weight Female 7 days: 166.0 ± 4.1 g
  rat body weight Male 1 day: 171.6 ± 10 g
  rat body weight Male 7 days: 199.6 ± 12.5 g
[1]; female rats, 7 days
  effect on body weight: did not affect
[1]; male rats, 7 days
  effect on weight: did not affect
[2]; [6]
  Creatine Kinase: 505.43 ± 202.03 U/L
  Lactate dehydrogenase: 627.43 ± 253.66 U/L
  α-hydroxybutyrate dehydrogenase: 270.28 ± 111.79 U/L
[2]; [7]
  Creatine Kinase: 508.57 ± 235.83 U/L
  Lactate dehydrogenase: 650.00 ± 338.13 U/L
  α-hydroxybutyrate dehydrogenase: 286.71 ± 154.38 U/L
[2]; [8]
  Creatine Kinase: 459.14 ± 239.34 U/L
  Lactate dehydrogenase: 544.14 ± 314.26 U/L
  α-hydroxybutyrate dehydrogenase: 233.43 ± 147.72 U/L
[2]; [9]
  Creatine Kinase: 454.86 ± 241.51 U/L
  Lactate dehydrogenase: 499.71 ± 320.46 U/L
  α-hydroxybutyrate dehydrogenase: 210.14 ± 140.24 U/L
[2]; [10]
  Creatine Kinase: 439.86 ± 222.18 U/L
  Lactate dehydrogenase: 496.86 ± 259.65 U/L
  α-hydroxybutyrate dehydrogenase: 208.86 ± 112.12 U/L
[2]; female rats, normoxia
  effect on serum lactic dehydrogenase, creatine kinase, α-hydroxybutyrate dehydrogenase activity: increasing
[2]; [11]
  Creatine Kinase: 1024.00 ± 313.62 U/L
  Lactate dehydrogenase: 1199.14 ± 204.93 U/L
  α-hydroxybutyrate dehydrogenase: 537.29 ± 92.21 U/L
[2]; hypoxia exposed female rats
  effect on serum lactic dehydrogenase, creatine kinase, α-hydroxybutyrate dehydrogenase activity: has been not found
[2]; hypoxia exposed male rats
  effect on serum lactate dehydrogenase, creatine kinase, α-hydroxybutyrate dehydrogenase: has not been found
[2]; male rats, hypoxia, 0.91 mg/kg
  Creatine Kinase: 443.63 ± 260.18 U/L
  Lactate dehydrogenase: 463.38 ± 364.37 U/L
  α-hydroxybutyrate dehydrogenase: 218.00 ± 173.09 U/L
[2]; male rats, hypoxia, 1.83 mg/kg
  Creatine Kinase: 544.63 ± 418.71 U/L
  Lactate dehydrogenase: 650.13 ± 573.72 U/L
  α-hydroxybutyrate dehydrogenase: 286.75 ± 260.98 U/L
[2]; male rats, hypoxia, 3.66 mg/kg
  Creatine Kinase: 544.50 ± 243.30 U/L
  Lactate dehydrogenase: 588.13 ± 360.36 U/L
  α-hydroxybutyrate dehydrogenase: 256.63 ± 154.55 U/L
[2]; male rats, hypoxia, 7.31 mg/kg
  Creatine Kinase: 640.25 ± 333.16 U/L
  Lactate dehydrogenase: 767.38 ± 546.88 U/L
  α-hydroxybutyrate dehydrogenase: 325.63 ± 238.56 U/L
[2]; [12]
  Creatine Kinase: 510.89 ± 240.61 U/L
  Lactate dehydrogenase: 510.44 ± 275.48 U/L
  α-hydroxybutyrate dehydrogenase: 218.67 ± 118.08 U/L
[3]; female rats, high-dose
  effect on serum total protein content: the same as the hypoxia model group
[3]; [6]
  albumin (second column): 31.03 ± 0.98 g/L
[3]; [7]
  albumin (second column): 29.67 ± 0.98 g/L
[3]; [8]
  albumin (second column): 29.33 ± 0.62 g/L
[3]; [10]
  albumin (second column): 30.16 ± 1.40 g/L
[3]; female rats, hypoxia, 7.3 l mg/kg
  albumin (second column): 31.49 ± 0.70 g/L
[3]; female rats, normoxia
  effect on total serum protein content: no significant effects
[3]; [11]
  albumin (second column): 30.87 ± 1.41 g/L
[3]; hypoxia exposed female rats (PQQ low-dose)
  effect on serum albumin: can reduce the effect of serum albumin in female rats increase caused by hypoxic exposure
[3]; hypoxia exposed female rats, low-dose
  effect on serum total protein content: can slightly reduce
[3]; [13]
  effect on serum albumin content: can reduce the effect of hypoxia exposure on the increase in serum albumin content
  effect on serum total protein content: can slightly reduce
[3]; male rats, high-dose
  effect on serum total protein content: the same as that of the hypoxia model group
[3]; male rats, hypoxia, 0.91 mg/kg
  albumin (second column): 22.55 ± 2.53 g/L
[3]; male rats, hypoxia, 1.83 mg/kg
  albumin (second column): 26.14 ± 2.04 g/L
[3]; male rats, hypoxia, 3.66 mg/kg
  albumin (second column): 28.60 ± 1.12 g/L
[3]; male rats, hypoxia, 7.31 mg/kg
  albumin (second column): 28.06 ± 1.31 g/L
[3]; [12]
  albumin (second column): 28.38 ± 0.90 g/L
[4]; [14]
  Mice weight Female 1 day: 16.13 ± 1.20 g
  Mice weight Female 7 days: 20.45 ± 1.37 g
  Mice weight Male 1 day: 16.36 ± 1.47 g
  Mice weight Male 7 days: 22.88 ± 1.78 g
  Mice weight Male 14 days: 30.85 ± 2.32 g
[4]; [15]
  Mice weight Female 1 day: 15.75 ± 1.07 g
  Mice weight Female 7 days: 21.41 ± 1.62 g
  Mice weight Male 1 day: 16.63 ± 1.87 g
  Mice weight Male 7 days: 22.58 ± 1.41 g
  Mice weight Male 14 days: 28.13 ± 2.70 g
[4]; [16]
  Mice weight Female 1 day: 15.63 ± 1.12 g
  Mice weight Female 7 days: 20.47 ± 2.11 g
  Mice weight Male 1 day: 17.01 ± 1.91 g
  Mice weight Male 7 days: 23.68 ± 2.02 g
  Mice weight Male 14 days: 29.44 ± 2.15 g
[4]; [17]
  Mice weight Female 1 day: 15.84 ± 1.33 g
  Mice weight Female 7 days: 21.68 ± 1.66 g
  Mice weight Male 1 day: 16.58 ± 1.68 g
  Mice weight Male 7 days: 23.13 ± 1.73 g
  Mice weight Male 14 days: 19.58 ± 2.11 g
[4]; [18]
  Mice weight Female 1 day: 15.68 ± 0.91 g
  Mice weight Female 7 days: 20.10 ± 2.07 g
  Mice weight Male 1 day: 16.86 ± 1.71 g
  Mice weight Male 7 days: 23.67 ± 1.77 g
  Mice weight Male 14 days: 30.81 ± 2.76 g
[4]; [19]
  Mice weight Female 1 day: 18.10 ± 1.19 g
  Mice weight Female 7 days: 21.36 ± 1.98 g
  Mice weight Male 1 day: 18.46 ± 1.36 g
  Mice weight Male 7 days: 22.19 ± 2.69 g
[4]; [20]
  Mice weight Female 1 day: 18.19 ± 1.24 g
  Mice weight Female 7 days: 21.40 ± 1.92 g
  Mice weight Male 1 day: 18.31 ± 1.01 g
  Mice weight Male 7 days: 23.51 ± 3.09 g
[4]; [21]
  Mice weight Female 1 day: 17.95 ± 1.28 g
  Mice weight Female 7 days: 22.71 ± 1.38 g
  Mice weight Male 1 day: 18.38 ± 1.85 g
  Mice weight Male 7 days: 22.04 ± 3.25 g
[4]; [22]
  Mice weight Female 1 day: 17.99 ± 1.41 g
  Mice weight Female 7 days: 22.66 ± 1.68 g
  Mice weight Male 1 day: 18.26 ± 1.15 g
  Mice weight Male 7 days: 22.41 ± 1.79 g
[4]; [23]
  Mice weight Female 1 day: 18.35 ± 1.62 g
  Mice weight Female 7 days: 23.94 ± 2.10 g
  Mice weight Male 1 day: 18.00 ± 1.78 g
  Mice weight Male 7 days: 23.54 ± 3.92 g
[4]; [24]
  Mice weight Female: 18.22 ± 1.16 g
  Mice weight Male: 19.97 ± 0.84 g
[4]; [25]
  Mice weight Female: 18.79 ± 1.14 g
  Mice weight Male: 19.65 ± 0.83 g
[4]; [26]
  Mice weight Female: 18.10 ± 0.76 g
  Mice weight Male: 20.16 ± 1.18 g
[4]; [27]
  Mice weight Female: 17.95 ± 1.14 g
  Mice weight Male: 19.73 ± 0.85 g
[4]; [28]
  Mice weight Female: 18.48 ± 1.01 g
  Mice weight Male: 19.28 ± 0.95 g
[4]; [29]
  Mice weight Male 1 day: 19.84 ± 1.84 g
  Mice weight Male 7 days: 27.14 ± 2.66 g
[4]; [30]
  Mice weight Male 1 day: 19.66 ± 1.08 g
  Mice weight Male 7 days: 26.78 ± 3.14 g
[4]; [31]
  Mice weight Male 1 day: 19.75 ± 1.27 g
  Mice weight Male 7 days: 26.47 ± 2.88 g
[4]; [32]
  Mice weight Male 1 day: 19.90 ± 1.06 g
  Mice weight Male 7 days: 27.33 ± 2.27 g
[4]; [33]
  Mice weight Male 1 day: 19.85 ± 1.00 g
  Mice weight Male 7 days: 26.73 ± 2.37 g
[4]; single dose test, 2.64 mg/kg
  Mice weight Female: 17.25 ± 1.23 g
  Mice weight Male: 19.71 ± 0.52 g
[4]; single dose test, 5.28 mg/kg
  Mice weight Female: 17.32 ± 1.35 g
  Mice weight Male: 19.51 ± 0.68 g
[4]; single dose test, 10.56 mg/kg
  Mice weight Female: 17.24 ± 0.96 g
  Mice weight Male: 19.16 ± 0.34 g
[5]; [6]
  serum Lactic acid: 222.06 ± 12.56 ng/L
[5]; [7]
  serum Lactic acid: 221.04 ± 14.36 ng/L
[5]; [8]
  serum Lactic acid: 242.8 ± 8.13 ng/L
[5]; [9]
  serum Lactic acid: 196.41 ± 11.86 ng/L
[5]; [10]
  serum Lactic acid: 173.09 ± 24.20 ng/L
[5]; female rats, normoxia
  effect on serum ATP content: no significant effect
  effect on serum lactic acid content: reducing
[5]; [11]
  serum Lactic acid: 116.73 ± 13.32 ng/L
[5]; hypoxia exposed female rats
  effect on serum ATP and lactic acid content: increasing
[5]; male rats
  effect on serum ATP and lactic acid content: no significant effects
[5]; male rats, hypoxia, 0.91 mg/kg
  serum Lactic acid: 188.70 ± 29.68 ng/L
[5]; male rats, hypoxia, 1.83 mg/kg
  serum Lactic acid: 177.33 ± 19.55 ng/L
[5]; male rats, hypoxia, 3.66 mg/kg
  serum Lactic acid: 189.12 ± 24.64 ng/L
[5]; male rats, hypoxia, 7.31 mg/kg
  serum Lactic acid: 172.64 ± 12.25 ng/L
[5]; [12]
  serum Lactic acid: 180.81 ± 24.64 ng/L
